Assays:
[1] = in vitro; conditions: mouse, microsomes
[2] = in vitro; conditions: human, microsomes
[3] = in vivo; conditions: rat, iv, 1 mg/kg
[4] = in vivo; conditions: rat, iv, 1 mg/kg; remark: listed apart in the source
[5] = in vivo; conditions: rat, iv, 1 mg/kg; remark: listed apart in the source
[6] = in vitro; conditions: rat, liver microsomes
[7] = in vivo; conditions: rat, po, 10 mg/kg
[8] = in vivo; conditions: rat, po, 10 mg/kg; remark: listed apart in the source
[9] = in vivo; conditions: rat, po, 10 mg/kg; remark: listed apart in the source
[10] = in vivo; conditions: rat, po, 10 mg/kg; remark: listed apart in the source
[11] = in vivo; conditions: rat, iv, 1 mg/kg; remark: listed apart in the source
[12] = in vivo; conditions: rat, iv, 10 mg/kg

COC(=O)C1CN(Cc2ccc(-n3cc(-c4ccc(OC(C)C)c(Cl)c4)nn3)cc2)C1
remaining at 0.5 h, 1 µM [1]: 19% | remaining at 0.5 h, 1 µM [2]: 23.2%

CC(C)Oc1ccc(C2CC(c3ccc(CN4CCC(C(=O)O)CC4)cc3)=NO2)cc1Cl (stereo not given)
remaining at 0.5 h, 1 µM [1]: 84.5% | remaining at 0.5 h, 1 µM [2]: 73.5%

COC(=O)C1CN(Cc2ccc(-c3cn(-c4ccc(OC(C)C)c(Cl)c4)nn3)cc2)C1
remaining at 0.5 h, 1 µM [1]: 28.8% | remaining at 0.5 h, 1 µM [2]: 24.1%

CC(C)Oc1ccc(-n2cc(-c3ccc(CN4CC(C(=O)O)C4)cc3)nn2)cc1Cl
remaining at 0.5 h, 1 µM [1]: > 99% | remaining at 0.5 h, 1 µM [2]: 98.5%

CC(C)(C)c1ccc(C2CC(c3ccc(CN4CC(C(=O)[O-])C4)cc3)=NO2)cc1.[Na+] (stereo not given)
half-life [3]: 2.4 h | Vd [4]: 2.6 L/kg | remaining at 0.5 h, 1 µM [1]: 96.7% | AUC(0-inf) [5]: 1160 ng·h/mL | remaining at 0.5 h, 1 µM [6]: 95.1% | half-life [7]: 3.1 h | Cmax [8]: 1070 ng/mL | bioavailability [9]: 44.9% | Tmax [10]: 2.3 h | remaining at 0.5 h, 1 µM [2]: 93.8% | clearance [11]: 13.1 mL/min/kg | AUC(0-inf) [12]: 5190 ng·h/mL

— ChEMBL document CHEMBL5154711, “Discovery of Novel Sphingosine-1-Phosphate-1 Receptor Agonists for the Treatment of Multiple Sclerosis” (J Med Chem, 2022)
